Where two headings read alike, the source gives them in different places.
How the values were obtained:
[1] = Eosin-Y release and retention in thiol-ene hydrogels; type: physicochemical; details: for eosin-Y retention in thiol-ene hydrogels: after 48 hours of swelling
Procedure: EXAMPLE. Eosin-Y retention: PEG4NB-DTT hydrogel discs (8 mm in diameter and 1 mm in height) are fabricated. Immediately after polymerization, each hydrogel (8 mm in diameter and 1 mm in height) is immersed into a scintillation vial containing 2 mL of ddH2O. Three separate samples are prepared per experimental condition. These scintillation vials are capped tightly and stored at 37° C. on an orbital shaker. At specific time points, these vials are swirled manually to ensure homogeneous mix and 200 μL of solution is transferred to a well of a transparent 96-well plate. The buffer is changed at every time point. The absorbance (at 515 nm) of the collected samples is determined using a microplate reader (Biotek). Eosin-Y retention was calculated by generating a standard curve prepared from a series of known eosin-Y concentrations (0.02 mM being the highest).

[2] = cited from earlier work
[3] = cited from earlier work; remark: listed apart in the source
[4] = post-gelation, pH 7.4 PBS, FIG. 10

| time in which most of the eosin-Y was released from the hydrogel [1, 4] | time to complete release of eosin-Y from the hydrogel [1, 4] | eosin-Y retention in thiol-ene hydrogels ([1]; starting eosin-Y concentration 0.1 mM) | eosin-Y retention in thiol-ene hydrogels ([1]; starting eosin-Y concentration 2.0 mM) | Structure (SMILES) | water solubility [2] | molar absorptivity (ε) ([3]; at 365 nm) | molar absorptivity (ε) ([3]; at 405 nm) |
| --- | --- | --- | --- | --- | --- | --- | --- |
| 0.5 h | 6 h | ~0.004 µmol | ~0.03 µmol | O=C([O-])c1ccccc1-c1c2cc(Br)c(=O)c(Br)c-2oc2c(Br)c([O-])c(Br)cc12.[Na+].[Na+] [eosin-Y, Eosin-Y disodium salt] | – | – | – |
| – | – | – | – | Cc1cc(C)c(C(=O)P(=O)([O-])c2ccccc2)c(C)c1.[Li+] [LAP, lithium arylphosphinate] | > 5 wt % | ~200 M⁻¹ cm⁻¹ | ~30 M⁻¹ cm⁻¹ |
| – | – | – | – | CC(C)(O)C(=O)c1ccc(OCCO)cc1 [I-2959] | < 0.5 wt % | < 10 M⁻¹ cm⁻¹ | – |

Source: patent US9364543B2, “Visible light curable hydrogels and methods for using” (Indiana University Research and Technology Corporation, priority 2012, dated 2016)
